Biological target: HIV-1 pNL4-3 integrase (Human immunodeficiency virus type 1 group M subtype B (isolate NY5) (HIV-1), UniProt P12497)
Test: Determination of enzyme (HIV integrase) inhibitory activity
Type: biochemical
Conditions: calculated from inhibition rate (fluorescence)
Procedure: The following explains evaluation methods of the HIV integrase inhibitory activity of the compound of the present invention.
A full-length gene sequence (Accession No.: M19921) of HIV-1 pNL4-3 integrase was inserted into restriction enzyme Nde I and Xho I sites of plasmid pET21a(+) (manufactured by Novagen) to construct an integrase expression vector pET21a-IN-Wild type.
Escherichia coli recombinant BL21(DE3) transformed with plasmid pET21a-IN-Wild type obtained in (i) was shake cultured at 30° C. in a liquid medium containing ampicillin. When the culture reached the logarithmic growth phase, isopropyl-β-D-thiogalactopyranoside was added to promote expression of integrase gene. The culture was continued for 5 hr to promote accumulation of the integrase protein. The recombinant E. coli was collected in pellets by centrifugal separation and preserved at −80° C.
This Escherichia coli was suspended in Lysis buffer (50 mM Tris-HCl (pH 7.6), 10 mM MgCl2, 5 mM DTT), and disrupted by repeating treatments of pressurization and depressurization, and insoluble fraction was collected by centrifugation at 4° C., 18,000 rpm for 60 min. This was suspended in Lysis buffer containing a protease inhibitor, […] and 10 mM CHAPS were added, and the mixture was stirred at 4° C. for 30 min. Water-soluble fraction was collected by centrifugation at 4° C., 9,000 rpm for 30 min. The obtained fraction was diluted with a column buffer (50 mM Tris-HCl (pH 7.6), 1 mM DTT, 10% Glycerol, 10 mM CHAPS) to 5-fold, and the mixture was applied to heparin column (HiPrep 16/10 Heparin FF column: manufactured by GE Healthcare Bio-Sciences). Using a column buffer containing 1M NaCl, a protein was eluted with 0-1M NaCl concentration gradient, and an eluted fraction containing an integrase protein was collected. The obtained fraction was diluted 5-fold with a column buffer (50 mM Tris-HCl (pH 7.6), 1 mM DTT, 10% Glycerol, 10 mM CHAPS), and the mixture was applied to cation exchange column (Mono-S column: manufactured by GE Healthcare Bio-Sciences). Using a column buffer containing 1M NaCl, a protein was eluted with 0-1M NaCl concentration gradient, and an eluted fraction containing an integrase protein was collected. The obtained fractions of the integrase protein were collected, and preserved at −80° C.
The following DNA synthesized by FASMAC was dissolved in TE buffer (10 mM Tris-hydrochloric acid (pH 8.0), 1 mM EDTA) and mixed with donor DNA, target DNA, and each complementary strand (+ and − strands) to 1 μM. The mixture was heated at 95° C. for 5 min, 80° C. for 10 min, 70° C. for 10 min, 60° C. for 10 min, 50° C. for 10 min and 40° C. for 10 min and kept at 25° C. to give a double stranded DNA, which was used for the test.
Donor DNA (+strand having biotin attached to the 5′ terminal)
Target DNA (+, − strands both having digoxigenin attached to the 3′ terminal)
The donor DNA was diluted with TE buffer to 20 nM, of which 50 μL was added to each well of streptavidin-coated black plate (manufactured by PIAS Corporation) and allowed to adsorb at 37° C. for 20 min. The plate was washed with phosphate buffer (Dulbecco's PBS, Sanko Junyaku Co., Ltd.) containing 0.1% Tween 20 and phosphate buffer. Then, an enzyme reaction mixture (70 μL), a test substance (10 μL) diluted with the enzyme reaction mixture and 0.75 μM integrase protein (10 μL) were added to each well and the mixture was reacted at 37° C. for 60 min. composition of enzyme reaction mixture: 30 mM MOPS (3-morpholinopropanesulfonic acid), 5 mM magnesium chloride, 3 mM DTT (dithiothreitol), 0.1 mg/mL BSA (bovine serum albumin), 5% glycerol, 10% DMSO (dimethyl sulfoxide), 0.01% Tween 20.
Then, 25 nM target DNA (10 μL) was added, and the mixture was reacted at 37° C. for 20 min and washed with phosphate buffer containing 0.1% Tween 20 to stop the reaction. […]

SMILES	IC50 [nM]
CCNC(=O)[C@@]1(C)CN(C(C)C)C(=O)c2c(O)c(=O)c(-c3nnc(Cc4ccc(F)cc4)s3)cn21 [Example 180]	10
CCN1C(=O)c2c(O)c(=O)c(-c3ncc(Cc4ccc(F)cc4)s3)cn2[C@@H](C)[C@H]1COC [Example 260]	12
CC(C)N1CC(CC(=O)O)n2cc(-c3ncc(Cc4ccc(F)cc4F)s3)c(=O)c(O)c2C1=O (centres unmarked) [Example 33]	6.2
COC[C@@H]1Cn2cc(-c3ncc(Cc4ccc(F)cc4)s3)c(=O)c(O)c2C(=O)N1CC1CC1 [Example 217]	5.3
COCCOC[C@H]1CN(C2CCC2)C(=O)c2c(O)c(=O)c(-c3nnc(Cc4ccc(F)cc4F)s3)cn21 [Example 86]	9.5
CC[C@@H]1Cn2cc(-c3nnc(Cc4ccc(F)cc4)s3)c(=O)c(O)c2C(=O)N1C(C)C [Example 278]	9.9
CC(C)N1CC(C)(C(=O)N2CCCCC2)n2cc(-c3ncc(Cc4ccc(F)cc4F)s3)c(=O)c(O)c2C1=O (centres unmarked) [Example 38]	12
CC(C)N1C[C@H](Cn2cncn2)n2cc(-c3nnc(Cc4ccc(F)cc4)s3)c(=O)c(O)c2C1=O [Example 358]	12
CCN1C[C@@H](COCCOC)n2cc(-c3nnc(Cc4ccc(F)cc4F)s3)c(=O)c(O)c2C1=O [Example 127]	14
COC[C@@H]1Cn2cc(-c3nnc(Cc4ccc(F)cc4F)s3)c(=O)c(O)c2C(=O)N1C(C)C [Example 99]	6.1
CC(C)N1C[C@](C)(C(=O)N2CC(O)C2)n2cc(-c3nnc(Cc4ccc(F)cc4)s3)c(=O)c(O)c2C1=O [Example 208]	12
CC(C)N1C(=O)c2c(O)c(=O)c(-c3nnc(Cc4ccc(F)cc4F)s3)cn2CC1CC(=O)O (centres unmarked) [Example 74]	5.7
CCN1C(=O)c2c(O)c(=O)c(-c3ncc(Cc4ccc(F)cc4)s3)cn2C[C@]1(C)C(=O)N(C)C [Example 293]	9.6
CC(C)N1C(=O)c2c(O)c(=O)c(-c3nnc(Cc4ccc(F)cc4)s3)cn2C[C@@]1(C)C(=O)N1CCCC1 [Example 306]	10
COCCOC[C@H]1CN(CC2CC2)C(=O)c2c(O)c(=O)c(-c3nnc(Cc4ccc(F)cc4)s3)cn21 [Example 118]	13
COCCOC[C@H]1CN(C(C)C)C(=O)c2c(O)c(=O)c(-c3nnc(Cc4ccc(F)cc4F)s3)cn21 [Example 44]	8.1
CCNC(=O)[C@@]1(C)CN(C2CC2)C(=O)c2c(O)c(=O)c(-c3nnc(Cc4ccc(F)cc4)s3)cn21 [Example 187]	19
CC(C)N1C(=O)c2c(O)c(=O)c(-c3nnc(Cc4ccc(F)cc4)s3)cn2C[C@@]1(C)C(=O)O [Example 312]	12
CC(C)N1CC(C)(C(=O)N(C)C)n2cc(-c3ncc(Cc4ccc(F)cc4F)s3)c(=O)c(O)c2C1=O (centres unmarked) [Example 152]	5.9
CC(C)(C)N1C[C@](C)(C(=O)N2CCCC2)n2cc(-c3nnc(Cc4ccc(F)cc4)s3)c(=O)c(O)c2C1=O [Example 188]	18
CO[C@@H]1CCN(C(=O)[C@@]2(C)CN(C(C)C)C(=O)c3c(O)c(=O)c(-c4nnc(Cc5ccc(F)cc5)s4)cn32)C1 [Example 211]	16
CC(C)N1C(=O)c2c(O)c(=O)c(-c3nnc(Cc4ccc(F)cc4)s3)cn2C[C@@H]1C [Example 233]	6.4
CCC(C)N1C(=O)c2c(O)c(=O)c(-c3nnc(Cc4ccc(F)cc4F)s3)cn2C[C@H]1COC (some centres unmarked) [Example 145]	5.6
CC(C)N1C[C@](C)(C(=O)N2CCOCC2)n2cc(-c3nnc(Cc4ccc(F)cc4)s3)c(=O)c(O)c2C1=O [Example 203]	13
CC(C)N1CC(CC#N)n2cc(-c3ncc(Cc4ccc(F)cc4F)s3)c(=O)c(O)c2C1=O (centres unmarked) [Example 49]	5.1

SMILES	IC50 [nM]
CO[C@@H](C)[C@@H]1Cn2cc(-c3nnc(Cc4ccc(F)cc4)s3)c(=O)c(O)c2C(=O)N1C(C)C [Example 334]	9.1
CCOC[C@H]1CN(C(C)C)C(=O)c2c(O)c(=O)c(-c3nnc(Cc4ccc(F)cc4F)s3)cn21 [Example 142]	6.4
COC[C@H]1CN(CC2CC2)C(=O)c2c(O)c(=O)c(-c3nnc(Cc4ccc(F)cc4F)s3)cn21 [Example 117]	9.4
CC(C)N1C[C@](C)(C(=O)N2CCC2)n2cc(-c3ncc(Cc4ccc(F)cc4)s3)c(=O)c(O)c2C1=O [Example 236]	13
COC[C@H]1CN(C(C)C)C(=O)c2c(O)c(=O)c(-c3nnc(Cc4cccc(Cl)c4)s3)cn21 [Example 228]	11
CC(C)N1C(=O)c2c(O)c(=O)c(-c3nnc(Cc4ccc(F)cc4F)s3)cn2CC1CC#N (centres unmarked) [Example 82]	4.9
COC[C@@H]1Cn2cc(-c3nnc(Cc4ccc(F)cc4)s3)c(=O)c(O)c2C(=O)N1C(C)C1CC1 (some centres unmarked) [Example 198]	5.7
CCN(C)C(=O)[C@]1(C)CN(C)C(=O)c2c(O)c(=O)c(-c3ncc(Cc4ccc(F)cc4)s3)cn21 [Example 265]	9.3
CC(=O)N(C)C[C@@H]1Cn2cc(-c3nnc(Cc4ccc(F)cc4)s3)c(=O)c(O)c2C(=O)N1C(C)C [Example 163]	7.7
CC(C)N1C[C@@](C)(C(=O)N2CCCC2)n2cc(-c3ncc(Cc4ccc(F)cc4)s3)c(=O)c(O)c2C1=O [Example 225]	18
CC(C)N1CC(CC(N)=O)n2cc(-c3ncc(Cc4ccc(F)cc4F)s3)c(=O)c(O)c2C1=O (centres unmarked) [Example 35]	6.7
CCNC(=O)[C@]1(COCCOC)CN(C(C)C)C(=O)c2c(O)c(=O)c(-c3ncc(Cc4ccc(F)cc4)s3)cn21 [Example 394]	14
CCN1C(=O)c2c(O)c(=O)c(-c3ncc(Cc4ccc(F)cc4)s3)cn2C[C@@]1(C)C(=O)N1CCCC1 [Example 254]	7.6
CC(C)N1C[C@H](CS(=O)(=O)C(C)(C)C)n2cc(-c3nnc(Cc4ccc(F)cc4)s3)c(=O)c(O)c2C1=O [Example 360]	11
CC(C)N1C(=O)c2c(O)c(=O)c(-c3nnc(Cc4ccc(F)cc4)s3)cn2C[C@H]1CO [Example 354]	8
CN(C)C(=O)[C@@]1(C)CN(C)C(=O)c2c(O)c(=O)c(-c3nnc(Cc4ccc(F)cc4F)s3)cn21 [Example 335]	9.8
CC(C)N1C(=O)c2c(O)c(=O)c(-c3nnc(Cc4ccc(F)cc4F)s3)cn2CC1C(=O)O (centres unmarked) [Example 50]	6.4
CCNC(=O)C1(C)CN(C(C)C)C(=O)c2c(O)c(=O)c(-c3ncc(Cc4ccc(F)cc4)s3)cn21 (centres unmarked) [Example 105]	17
CC(C)N1C[C@](C)(C(=O)N2CCCC2)n2cc(-c3nnc(Cc4ccc(F)cc4)s3)c(=O)c(O)c2C1=O [Example 179]	19
CCN1C(=O)c2c(O)c(=O)c(-c3nnc(Cc4ccc(F)cc4)s3)cn2CC1(C)C [Example 355]	6.6
CC(C)N1CC(C)(C(=O)N2CCOCC2)n2cc(-c3ncc(Cc4ccc(F)cc4F)s3)c(=O)c(O)c2C1=O (centres unmarked) [Example 52]	13
COCCOC[C@@H]1Cn2cc(-c3nnc(Cc4ccc(F)cc4)s3)c(=O)c(O)c2C(=O)N1C(C)C [Example 83]	7.1
CCCN1C[C@H](COCC)n2cc(-c3nnc(Cc4ccc(F)cc4)s3)c(=O)c(O)c2C1=O [Example 357]	7.3
CC(C)NC(=O)[C@]1(C)Cn2cc(-c3nnc(Cc4ccc(F)cc4)s3)c(=O)c(O)c2C(=O)N1C(C)C [Example 308]	13
COCCOC[C@H]1CN(CC(C)(C)C)C(=O)c2c(O)c(=O)c(-c3nnc(Cc4ccc(F)cc4)s3)cn21 [Example 123]	27

Source: patent US10065950B2, “Substituted thiazoles as HIV integrase inhibitors” (Japan Tobacco Inc., priority 2010, dated 2018)
